Some test systems named below: HCC 2998; SNB-19; OVCAR-4; CCRF-CEM; M14; DU-145; SK-MEL-28; U-251; HCT-15; SK-MEL-5; A498; SNB-75; IGROV-1; SK-OV-3; UACC-62; CAKI-1; NCI-H226; OVCAR-5; BT-549; NCI-H460.
What all share (test): growth of human tumour cells (NCI), 48 h

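Five concentrations, 48 hours, 96-well plates. GI50 is the concentration that inhibits growth by half.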 Activity calls are given as the source filed them. Cut-off read from the data, not from the text of the source: active = GI50 up to about 1.1 µM and inactive = higher.

The source of these data is ChEMBL document CHEMBL1201862, “PubChem BioAssay data set” (2004).

With `COC(=O)[C@H](C)NC(=O)C1(CNC(=O)[C@H](C)NC(=O)OC(C)(C)C)Cc2ccccc2-c2ccccc2C1`, the GI50 in the assay with HCC 2998 is 24.9 µM (inactive); in the assay with SNB-19, > 56.9 µM (inactive); with OVCAR-4, 21 µM (inactive); with CCRF-CEM it was 18.7 µM (inactive); in the assay with M14 it was > 45.9 µM (inactive); in the assay with DU-145, 14.9 µM (inactive). Also, the GI50 was > 47.3 µM (inactive) with SK-MEL-28; 17.9 µM (inactive) with U-251; 15.7 µM with HCT-15; 23.3 µM (inactive) in the assay on SK-MEL-5; 35.7 µM (inactive) in the assay on A498; 23.4 µM (inactive) in the assay with SNB-75. Further, the GI50 in the assay on IGROV-1 is 16.3 µM (inactive); in the assay with SK-OV-3, 30.5 µM (inactive); in the assay on UACC-62, 16.7 µM (inactive); in the assay on CAKI-1, 12.2 µM (inactive); in the assay with NCI-H226 it was 24.5 µM (inactive); with OVCAR-5, 19.9 µM (inactive). The GI50 in the assay with BT-549 was > 43.6 µM (inactive); in the assay on NCI-H460, 19.7 µM (inactive).
As to `CC(=O)NC1=CC(=O)C=C(Cl)C1=O`, the GI50 in the assay with HCC 2998 is > 100 µM (inactive); with SNB-19, > 100 µM (inactive); in the assay with OVCAR-4, 18.1 µM (inactive); in the assay on CCRF-CEM, 22.9 µM (inactive); in the assay on M14 it was 42.3 µM (inactive); with DU-145 it was > 100 µM (inactive). Besides, the GI50 is > 100 µM (inactive) in the assay on SK-MEL-28; > 100 µM (inactive) in the assay on U-251; > 100 µM in the assay with HCT-15; > 100 µM (inactive) in the assay with SK-MEL-5; > 100 µM (inactive) with A498; > 100 µM (inactive) in the assay with SNB-75. The GI50 in the assay on IGROV-1 is > 100 µM (inactive); with SK-OV-3, > 100 µM (inactive); in the assay with UACC-62, 37.5 µM (inactive); with CAKI-1, > 100 µM (inactive); in the assay on NCI-H226 it was > 100 µM (inactive); in the assay on OVCAR-5 it was > 100 µM (inactive). In addition, the GI50 in the assay on BT-549 and in the assay on NCI-H460 was > 100 µM (inactive) in each case.
In the case of `CCOC(=O)c1nc2cc(N3CCOCC3)c(F)cc2[nH]c1=O`, the GI50 in the assay on HCC 2998 was > 100 µM (inactive); in the assay with SNB-19, > 100 µM (inactive); with OVCAR-4 it was > 100 µM (inactive); in the assay on CCRF-CEM, 91.8 µM (inactive); in the assay with M14, > 100 µM (inactive); in the assay on DU-145, > 100 µM (inactive). For the same molecule, the GI50 is > 100 µM (inactive) in the assay with SK-MEL-28; > 100 µM (inactive) with U-251; > 100 µM in the assay on HCT-15; > 100 µM (inactive) with SK-MEL-5; > 100 µM (inactive) with A498; 52 µM (inactive) with SNB-75. The GI50 with IGROV-1 was 39 µM (inactive); with SK-OV-3 it was > 100 µM (inactive); in the assay on UACC-62, 92.9 µM (inactive); in the assay with CAKI-1, > 100 µM (inactive); with NCI-H226 it was 20.3 µM (inactive); in the assay on OVCAR-5, 64.3 µM (inactive). Further, the GI50 in the assay on BT-549 and in the assay on NCI-H460 was > 100 µM (inactive) throughout.
Consider `Oc1ccc(SCc2cc(O)ccc2O)cc1`, for which the GI50 with HCC 2998 is 22.8 µM (inactive); in the assay with SNB-19, 23.7 µM (inactive); in the assay with OVCAR-4 it was 5.5 µM (inactive); in the assay with CCRF-CEM, 1.79 µM (inactive); in the assay with M14 it was 18.4 µM (inactive); in the assay on DU-145 it was 24.7 µM (inactive). For the same molecule, the GI50 was 17.7 µM (inactive) in the assay on SK-MEL-28; 14.5 µM (inactive) in the assay on U-251; 9.55 µM with HCT-15; 10 µM (inactive) in the assay on SK-MEL-5; 34 µM (inactive) with A498; 20.9 µM (inactive) in the assay on SNB-75. Besides, the GI50 is 10.1 µM (inactive) in the assay on IGROV-1; 30.2 µM (inactive) in the assay with SK-OV-3; 17.1 µM (inactive) with UACC-62; 6.14 µM (inactive) in the assay on CAKI-1; 9.42 µM (inactive) with NCI-H226; 20.4 µM (inactive) in the assay on OVCAR-5. For the same molecule, the GI50 was 3.81 µM (inactive) with BT-549 and 28.9 µM (inactive) in the assay with NCI-H460.
Turning to `CCSc1nc(C)nc2c1sc1nc3ccccc3n12`, the GI50 with HCC 2998 is > 100 µM (inactive); in the assay on SNB-19, > 100 µM (inactive); in the assay with OVCAR-4, > 78.3 µM (inactive); with CCRF-CEM, > 100 µM (inactive); with M14, > 100 µM (inactive); with DU-145, > 100 µM (inactive). For the same molecule, the GI50 in the assay with SK-MEL-28 was > 100 µM (inactive); with U-251 it was > 100 µM (inactive); in the assay on HCT-15, > 100 µM; in the assay on SK-MEL-5 it was > 100 µM (inactive); with A498, > 100 µM (inactive); in the assay on SNB-75 it was > 94 µM (inactive). In addition, the GI50 in the assay with IGROV-1, with SK-OV-3, with UACC-62, with CAKI-1, with NCI-H226 and in the assay on OVCAR-5 was > 100 µM (inactive) throughout. Besides, the GI50 with BT-549 and in the assay on NCI-H460 was > 100 µM (inactive) in each case.
In the case of `O=S(=O)(Nc1nc2ccccc2nc1Nc1ccc2ccccc2c1)c1ccccc1`, the GI50 was 7.1 µM (inactive) in the assay on HCC 2998; 9.42 µM (inactive) in the assay on SNB-19; 4.67 µM (inactive) in the assay with OVCAR-4; 20 µM (inactive) in the assay with CCRF-CEM; 9.04 µM (inactive) in the assay with M14; 20.3 µM (inactive) in the assay on DU-145. Moreover, the GI50 is 12.1 µM (inactive) with SK-MEL-28; 5.78 µM (inactive) with U-251; 11.1 µM in the assay on HCT-15; 10.9 µM (inactive) with SK-MEL-5; 28.3 µM (inactive) in the assay with A498; 26.5 µM (inactive) with SNB-75. Further, the GI50 in the assay with IGROV-1 was 9.59 µM (inactive); in the assay with SK-OV-3, 7.78 µM (inactive); in the assay on UACC-62, 4.67 µM (inactive); in the assay on CAKI-1, 27.4 µM (inactive); in the assay on NCI-H226, 16.7 µM (inactive); in the assay with OVCAR-5, 26.4 µM (inactive). For the same molecule, the values for the GI50 in the assay on BT-549 and with NCI-H460 were 15.8 µM (inactive) and 7.53 µM (inactive), respectively.
For `CC1(C)S[C@@H]2[C@H](NC(=O)C3(N)CCCCC3)C(=O)N2[C@H]1C(=O)O` [CYCLACILLIN], the GI50 in the assay with HCC 2998, with SNB-19, in the assay on OVCAR-4, in the assay on CCRF-CEM, in the assay with M14 and in the assay with DU-145 was > 100 µM (inactive) each time. Further, the GI50 is > 100 µM (inactive) in the assay on SK-MEL-28; > 100 µM (inactive) with U-251; > 100 µM in the assay on HCT-15; > 100 µM (inactive) in the assay on SK-MEL-5; > 100 µM (inactive) in the assay on A498; > 100 µM (inactive) in the assay on SNB-75. Moreover, the GI50 with IGROV-1, in the assay on SK-OV-3, in the assay with UACC-62, with CAKI-1, in the assay on NCI-H226 and with OVCAR-5 was > 100 µM (inactive) in each case. For the same molecule, the GI50 in the assay with BT-549 and with NCI-H460 was > 100 µM (inactive) each time.
As to `C/C1=C/C(=O)O[C@@H]2C[C@@H](CC[C@H](C)/C=C\C=C\CC1)O[C@@](O)([C@@H]1CSC(=O)N1)C2` [LATRUNCULIN A], the GI50 in the assay on HCC 2998 was > 2.97 µM (inactive); in the assay on SNB-19 it was 0.611 µM (active); in the assay with OVCAR-4, 1.02 µM (active); with CCRF-CEM, 0.438 µM (active); in the assay on M14, 0.565 µM (active); in the assay with DU-145, 2.77 µM (inactive). Moreover, the GI50 is 1.12 µM (inactive) with SK-MEL-28; > 10 µM (inactive) with U-251; 0.52 µM in the assay on HCT-15; 0.444 µM (active) with SK-MEL-5; 0.111 µM (active) in the assay with A498; 0.075 µM (active) in the assay on SNB-75. The GI50 is 0.133 µM (active) in the assay with IGROV-1; > 4.16 µM (inactive) in the assay with SK-OV-3; 0.348 µM (active) with UACC-62; 0.0741 µM (active) in the assay on CAKI-1; 0.272 µM (active) in the assay with NCI-H226; 0.484 µM (active) in the assay on OVCAR-5. Further, the GI50 in the assay with BT-549 is 0.305 µM (active); in the assay on NCI-H460 it was 0.8 µM (active).
